In patent publication US10508113B2, “Inhibitors of tyrosine kinase 2 mediated signaling” (AbbVie Inc., priority 2018, dated 2019):

How the values were obtained:
[1] = target: T1, Jak1 (Homo sapiens, UniProt P23458); experiment: Jak1 (PSTAT3 TF1) alpha screen assay: inhibition of IL-6 induced phosphorylation of STAT3 in TF1 cells; format: cell-based; conditions: calculated from tabulated EC50 data (Jak1 / Tyk2)
T1 construct: endogenous in cells; host or cells: TF1 cells
In short: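 IL-6-starved TF1 cells were preincubated 30 min at 37 °C with compound (top final 25 μM, 8-point 1:5 series), then stimulated with IL-6 (100 ng/mL final) for 30 min at 37 °C. Lysates were read for pSTAT3 (Tyr705) by AlphaScreen SureFire. EC50 from percent-activity dose-response curves.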

[2] = target: T2, Jak2 (Homo sapiens, UniProt O60674); experiment: Jak2 (PSTATS UT7) alpha screen assay: inhibition of EPO induced phosphorylation of STAT5 in UT7 cells; format: cell-based; conditions: calculated from tabulated EC50 data (Jak2 / Tyk2)
T2 construct: Cell Type: UT7 cells engineered to express the erythropoietin (EPO) receptor; endogenous in cells; host or cells: UT7 cells engineered to express the EPO receptor
T2 sequence (O60674 whole entry): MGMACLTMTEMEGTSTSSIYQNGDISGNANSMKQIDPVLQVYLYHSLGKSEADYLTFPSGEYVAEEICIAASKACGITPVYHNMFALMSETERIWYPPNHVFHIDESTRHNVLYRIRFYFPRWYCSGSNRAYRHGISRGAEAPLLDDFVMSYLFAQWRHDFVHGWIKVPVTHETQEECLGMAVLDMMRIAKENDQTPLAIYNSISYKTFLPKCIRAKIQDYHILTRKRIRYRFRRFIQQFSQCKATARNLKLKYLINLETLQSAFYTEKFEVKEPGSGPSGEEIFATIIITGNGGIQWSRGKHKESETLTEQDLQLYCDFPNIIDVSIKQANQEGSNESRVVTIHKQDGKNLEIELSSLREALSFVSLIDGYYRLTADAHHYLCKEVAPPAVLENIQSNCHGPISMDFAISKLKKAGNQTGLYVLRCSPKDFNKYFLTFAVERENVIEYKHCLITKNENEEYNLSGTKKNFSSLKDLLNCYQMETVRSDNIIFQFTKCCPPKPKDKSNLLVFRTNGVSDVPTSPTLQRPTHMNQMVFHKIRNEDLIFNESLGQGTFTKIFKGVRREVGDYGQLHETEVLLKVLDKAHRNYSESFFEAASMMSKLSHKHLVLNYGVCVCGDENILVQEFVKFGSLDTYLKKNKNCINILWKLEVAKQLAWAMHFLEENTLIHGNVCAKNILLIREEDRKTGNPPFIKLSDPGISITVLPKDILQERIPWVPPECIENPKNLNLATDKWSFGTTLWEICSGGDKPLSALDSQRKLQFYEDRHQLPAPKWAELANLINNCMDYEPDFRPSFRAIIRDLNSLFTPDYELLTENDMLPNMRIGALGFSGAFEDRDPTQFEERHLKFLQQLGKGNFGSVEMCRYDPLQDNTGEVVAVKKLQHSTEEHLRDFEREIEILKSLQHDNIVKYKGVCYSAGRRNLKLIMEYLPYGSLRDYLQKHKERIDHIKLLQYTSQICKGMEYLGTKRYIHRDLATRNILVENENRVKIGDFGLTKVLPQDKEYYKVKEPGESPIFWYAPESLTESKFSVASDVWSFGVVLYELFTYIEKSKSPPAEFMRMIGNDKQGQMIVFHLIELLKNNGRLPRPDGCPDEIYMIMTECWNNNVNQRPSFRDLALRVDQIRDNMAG
Method: 3. JAK2 (PSTATS UT7) ALPHA SCREEN ASSAY
Erythropoietin (EPO) is known to transduce its signal through EPO receptor via Jak2. Activity against Jak2 was therefore measured by determining inhibition of EPO induced phosphorylation of STATS in UT7 cells. […] Materials
Cell Type: UT7 cells engineered to express the erythropoietin (EPO) receptor; Culture Medium: Dulbecco's Modified Eagle Medium (DMEM) with 2 mM L-glutamine, 10 mM hydroxyethyl piperazineethanesulfonic acid (HEPES), 10% heat-inactivated fetal bovine serum (FBS) and Stock EPO (5000U in 250 uL, need 5U/mL, so add 250 μL to 1L of media); Assay Medium: 5% FBS ultra-low IgG and 1% Pen/Strep. Compounds were made-up in 100% dimethyl sulfoxide (DMSO).
Day One - Starve Cells: 4 Flasks for one 384 plate (spin down @1000 rpm for 10 minutes and add DMEM with no EPO).
Day Two—Compound Dilutions:
i. Manual 8-point 1:3 dilution curve: 5 mM top concentration dispensed in row A of a
Corning 96-well polypropylene plate, columns 2-12. DMSO dispensed in position A01 for low and high controls. Compounds were serially diluted 1:3 by adding 10 μL stock to 20 μL DMSO down the plate.
ii. Media dilution of compounds: Serially diluted compounds were diluted 1:50 in assay medium by adding 4 μL compound to 196 μL assay medium in a Corning 96-well polypropylene plate.
384 Alpha Screen Plate Set up: Transferred 2.5 μL/well of compound solution from last dilution plate. Replicates were vertical, so that one column of the 96-well dilution plate goes into one column on the 384-well plate twice. Plated 1×10^5 starved cells/well in 5μL. Washed cells in 10 mL Hank's balanced salt solution (HBSS) after spinning down. Counted live cells. Multiplied by dilution factor and 10,000 (constant) to get the concentration of viable cells. Multiplied by volume of cells to get the total number of live cells. Divided by 20,000,000 cells/mL to get the volume needed. Subtracted the original volume to get the volume to be added to get the final concentration of cells. Mixed in reservoir if needed, ensuring that all cell clumps are broken up (if not broken up, they were removed from the suspension). Cells were plated at 5 μL/well in gray Alpha Screen 384-well plate. Spinned the plate to bring the contents to the bottom of the wells at 400 rpm for 2 minutes. Top final compound concentration: 25 μM. Sealed with adhesive and tapped gently. Incubated cells at 37° C. for 30 minutes.
c. EPO Stimulation (p STATS)
Once cells were in incubator, immediately prepared working stock of EPO (1 nM final assay concentration). EPO stock=2860 nM of sterile filtered liquid in sodium citrate buffer (1 liter of ddH2O containing 5.9 g of sodium citrate, 5.8 g of sodium chloride and 0.06 g of citric acid). Diluted 1:22.72 by adding 4.44 stock EPO to 95.6 pi assay media, then dilute again […] depending on how much volume is needed for the assay plates. Used assay medium to bring to volume. Added 2.5 μL EPO to each well. Spinned plate at 400 rpm briefly; tap the plate gently before covering with an adhesive seal. Cells were incubated at 37° C. for 20 minutes.
Added 2.5 μL of 5X Lysis buffer to each well. Spinned plate at 400 rpm briefly. Incubated at room temperature (on orbital shaker) for 10 minutes.
e. Protein (A) Acceptor Beads Preparation: (Light sensitive)
Phosphorylated Signal Transducer and Activator of Transcription 5 (pSTAT5) was quantified using the PerkinElmer SureFire pSTATS (Tyrosine 694/699) Assay. Calculated total volume needed (wells×15 μL×30%). Divided total volume by 5 to get volume of activation buffer. Subtracted volume of activation buffer from total volume and divide by 40 to get volume of acceptor beads (add last). Total volume - acceptor bead volume - activation buffer to get volume of reaction buffer. Added 15 μL to each well and covered with foil. Shaked on orbital shaker for 2 hours at 500 rpm.
f. Streptavidin Donor Beads Preparation:
Calculated total volume needed (wells×6μL×30%). […]

T1 sequence (P23458 whole entry): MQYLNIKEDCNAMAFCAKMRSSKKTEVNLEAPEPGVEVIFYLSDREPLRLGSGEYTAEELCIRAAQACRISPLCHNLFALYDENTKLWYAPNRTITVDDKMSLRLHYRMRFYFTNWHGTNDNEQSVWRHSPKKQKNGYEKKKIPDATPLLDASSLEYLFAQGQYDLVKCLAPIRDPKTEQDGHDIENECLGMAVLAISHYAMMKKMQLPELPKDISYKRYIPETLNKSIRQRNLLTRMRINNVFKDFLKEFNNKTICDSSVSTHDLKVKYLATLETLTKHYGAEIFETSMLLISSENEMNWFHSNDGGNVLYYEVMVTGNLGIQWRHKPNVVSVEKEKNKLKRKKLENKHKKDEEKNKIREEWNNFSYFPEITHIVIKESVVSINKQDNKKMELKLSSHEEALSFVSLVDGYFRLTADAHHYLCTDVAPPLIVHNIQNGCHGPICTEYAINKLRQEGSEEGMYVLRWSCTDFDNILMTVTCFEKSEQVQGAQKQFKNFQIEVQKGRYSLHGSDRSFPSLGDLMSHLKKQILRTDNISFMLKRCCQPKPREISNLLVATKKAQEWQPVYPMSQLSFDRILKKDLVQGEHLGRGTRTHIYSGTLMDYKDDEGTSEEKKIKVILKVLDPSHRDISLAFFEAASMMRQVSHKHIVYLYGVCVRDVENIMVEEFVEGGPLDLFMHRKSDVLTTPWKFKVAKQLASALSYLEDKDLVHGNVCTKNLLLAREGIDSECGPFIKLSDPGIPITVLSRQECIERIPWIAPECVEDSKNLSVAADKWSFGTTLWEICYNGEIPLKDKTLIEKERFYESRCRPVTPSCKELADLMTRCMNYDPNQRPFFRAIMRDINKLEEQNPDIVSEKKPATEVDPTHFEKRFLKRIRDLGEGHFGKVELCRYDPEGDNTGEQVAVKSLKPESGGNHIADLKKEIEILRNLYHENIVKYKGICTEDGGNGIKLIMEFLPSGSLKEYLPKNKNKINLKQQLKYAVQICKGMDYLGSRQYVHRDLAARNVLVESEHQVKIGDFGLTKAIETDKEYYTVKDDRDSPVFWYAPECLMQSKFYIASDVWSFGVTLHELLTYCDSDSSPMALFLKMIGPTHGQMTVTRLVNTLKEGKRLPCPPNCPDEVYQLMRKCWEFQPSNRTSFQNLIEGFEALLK

SMILES	Tyk2 selectivity over Jak1 [1]	Tyk2 selectivity over Jak2 [2]
CO[C@@]1(c2cc(OCC3COC3)cc(-c3cn(C)c4cnc(NC(C)=O)cc34)n2)CCOC1 [Example 6, (R)-N-(3-(6-(3-Methoxytetrahydrofuran-3-yl)-4-(oxetan-3-ylmethoxy)pyridin-2-yl)-1-methyl-1H-pyrrolo[2,3-c]pyridin-5-yl)acetamide]	420-fold	>500-fold
CO[C@@]1(c2cc(C)cc(-c3cn(C)c4cnc(NC(N)=O)cc34)n2)CCOC1 [Example 1b.2, (R)-1-(3-(6-(3-methoxytetrahydrofuran-3-yl)-4-methylpyridin-2-yl)-1-methyl-1H-pyrrolo[2,3-c]pyridin-5-yl)urea]	840-fold	>1000-fold
CO[C@@]1(c2cncc(-c3cn(C)c4cnc(NC(N)=O)cc34)n2)CCOC1 [Example 12, (R)-1-(3-(6-(3-Methoxytetrahydrofuran-3-yl)pyrazin-2-yl)-1-methyl-1H-pyrrolo[2,3-c]pyridin-5-yl)urea]	66-fold	>102-fold
COC1(c2cccc(-c3cn(C)c4cnc(NC(N)=O)cc34)n2)COC1 [Example 1b.4, 1-(3-(6-(3-methoxyoxetan-3-yl)pyridin-2-yl)-1-methyl-1H-pyrrolo[2,3-c]pyridin-5-yl)urea]	54-fold	>176-fold
CO[C@@]1(c2cc(OCC[C@H](C)O)cc(-c3cn(C)c4cnc(NC(C)=O)cc34)n2)CCOC1 [Example 9, N-(3-(4-((S)-3-Hydroxybutoxy)-6-((R)-3-methoxytetrahydrofuran-3-yl)pyridin-2-yl)-1-methyl-1H-pyrrolo[2,3-c]pyridin-5-yl)acetamide]	494-fold	>294-fold
COc1cc(-c2cn(C)c3cnc(NC(N)=O)cc23)nc([C@]2(OC)CCOC2)c1 [Example 12.6, (R)-1-(3-(4-methoxy-6-(3-methoxytetrahydrofuran-3-yl)pyridin-2-yl)-1-methyl-1H-pyrrolo[2,3-c]pyridin-5-yl)urea]	385-fold	>641-fold
CO[C@@]1(c2cc(C(F)F)cc(-c3cn([C@H]4C[C@H](C#N)C4)c4cnc(NC(C)=O)cc34)n2)CCOC1 [Example 17.2, N-(1-((trans)-3-cyanocyclobutyl)-3-(4-(difluoromethyl)-6-((R)-3-methoxytetrahydrofuran-3-yl)pyridin-2-yl)-1H-pyrrolo[2,3-c]pyridin-5-yl)acetamide]	243-fold	>174-fold
CO[C@H](C)COc1cc(-c2cn(C)c3cnc(NC(C)=O)cc23)nc([C@]2(OC)CCOC2)c1 [Example 22.10, N-(3-(4-((R)-2-methoxypropoxy)-6-((R)-3-methoxytetrahydrofuran-3-yl)pyridin-2-yl)-1-methyl-1H-pyrrolo[2,3-c]pyridin-5-yl)acetamide]	>272-fold	>272-fold
COCc1cc(-c2cn(C)c3cnc(NC(N)=O)cc23)nc([C@]2(OC)CCOC2)c1 [Example 3, (R)-1-(3-(4-(Methoxymethyl)-6-(3-methoxytetrahydrofuran-3-yl)pyridin-2-yl)-1-methyl-1H-pyrrolo[2,3-c]pyridin-5-yl)urea]	514-fold	>714-fold
Cn1cc(-c2cncc([C@]3(C)CCOC3)n2)c2cc(NC(N)=O)ncc21 [Example 1b.5, (S)-1-(1-methyl-3-(6-(3-methyltetrahydrofuran-3-yl)pyrazin-2-yl)-1H-pyrrolo[2,3-c]pyridin-5-yl)urea]	83-fold	>1389-fold
CO[C@@]1(c2cccc(-c3cn(C)c4cnc(NC(N)=O)cc34)n2)CCOC1 [Example 1, (R)-1-(3-(6-(3-Methoxytetrahydrofuran-3-yl)pyridin-2-yl)-1-methyl-1H-pyrrolo[2,3-c]pyridin-5-yl)urea]	92-fold	>424-fold

Second part, the compound after the results:

Tyk2 selectivity over Jak1 [1]	Tyk2 selectivity over Jak2 [2]	SMILES
>317-fold	>198-fold	COCc1cc(-c2cn(C)c3cnc(NC(C)=O)cc23)nc([C@]2(OC)CCOC2)c1 [Example 2, (R)-N-(3-(4-(Methoxymethyl)-6-(3-methoxytetrahydrofuran-3-yl)pyridin-2-yl)-1-methyl-1H-pyrrolo[2,3-c]pyridin-5-yl)acetamide]
72-fold	>171-fold	COCc1cc(-c2cn(C)c3cnc(NC(C)=O)cc23)nc([C@]2(CO)CCOC2)c1 [Example 22, (S)-N-(3-(6-(3-(Hydroxymethyl)tetrahydrofuran-3-yl)-4-(methoxymethyl)pyridin-2-yl)-1-methyl-1H-pyrrolo[2,3-c]pyridin-5-yl)acetamide]
207-fold	>126-fold	CO[C@@]1(c2cc(C)cc(-c3cn(C)c4cnc(NC(C)=O)cc34)n2)CCOC1 [Example 2.2, (R)-N-(3-(6-(3-methoxytetrahydrofuran-3-yl)-4-methylpyridin-2-yl)-1-methyl-1H-pyrrolo[2,3-c]pyridin-5-yl)acetamide]
563-fold	>287-fold	CO[C@@]1(c2cc(OC[C@@H](C)O)cc(-c3cn(C)c4cnc(NC(C)=O)cc34)n2)CCOC1 [Example 14.6, N-(3-(4-((R)-2-hydroxypropoxy)-6-((R)-3-methoxytetrahydrofuran-3-yl)pyridin-2-yl)-1-methyl-1H-pyrrolo[2,3-c]pyridin-5-yl)acetamide]
440-fold	>197-fold	CO[C@@]1(c2cc(C#N)cc(-c3cn([C@@H]4CC4(F)F)c4cnc(NC(C)=O)cc34)n2)CCOC1 [Example 2a.3, N-(3-(4-cyano-6-((R)-3-methoxytetrahydrofuran-3-yl)pyridin-2-yl)-1-((R)-2,2-difluorocyclopropyl)-1H-pyrrolo[2,3-c]pyridin-5-yl)acetamide]
1960-fold	>1000-fold	COCCOc1cc(-c2cn(C)c3cnc(NC(C)=O)cc23)nc([C@]2(OC)CCOC2)c1 [Example 25, (R)-N-(3-(4-(2-methoxyethoxy)-6-(3-methoxytetrahydrofuran-3-yl)pyridin-2-yl)-1-methyl-1H-pyrrolo[2,3-c]pyridin-5-yl)acetamide]
486-fold	>171-fold	CO[C@@]1(c2cc(OC[C@H](C)O)cc(-c3cn(C)c4cnc(NC(C)=O)cc34)n2)CCOC1 [Example 14.5, N-(3-(4-((S)-2-hydroxypropoxy)-6-((R)-3-methoxytetrahydrofuran-3-yl)pyridin-2-yl)-1-methyl-1H-pyrrolo[2,3-c]pyridin-5-yl)acetamide]
72-fold	>240-fold	CC[C@]1(c2cc(C#N)cc(-c3cn(C)c4cnc(NC(C)=O)cc34)n2)CCOC1 [Example 2.11, (R)-N-(3-(4-cyano-6-(3-ethyltetrahydrofuran-3-yl)pyridin-2-yl)-1-methyl-1H-pyrrolo[2,3-c]pyridin-5-yl)acetamide]
